Test results: PubChem BioAssay AID192 (DTP/NCI, 2004)
Where “and” joins values, the source holds several entries; their conditions need not be identical. Equal entries are not always repeated. Inconclusive results and toxic doses are left out.

System: BDF1 mice, B16 melanoma ip, median survival T/C
Assay: NCI In Vivo Anticancer Drug Screen. Data for tumor model B16 Melanoma (intraperitoneal) in B6D2F1 (BDF1) mice
Settings: endpoint: median survival time, higher = longer survival
How it was run: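 Antitumor activity is assessed in mice bearing a transplanted tumor, with survival or tumor size compared against vehicle-dosed controls and expressed as T/C.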

[1] = dose: 6.25 mg/kg/injection, schedule: Q01DX009 (ip), vehicle: saline with Tween-80
[2] = dose: 12.5 mg/kg/injection, schedule: Q01DX009 (ip), vehicle: saline with Tween-80
[3] = dose: 25.0 mg/kg/injection, schedule: Q01DX009 (ip), vehicle: saline with Tween-80
[4] = dose: 50.0 mg/kg/injection, schedule: Q01DX009 (ip), vehicle: saline with Tween-80
[5] = dose: 100.0 mg/kg/injection, schedule: Q01DX009 (ip), vehicle: saline with Tween-80
[6] = dose: 100.0 mg/kg/injection, schedule: Q01DX009 (ip), vehicle: Klucel (hydroxypropylcellulose) (HPC)
[7] = dose: 200.0 mg/kg/injection, schedule: Q01DX009 (ip), vehicle: Klucel (hydroxypropylcellulose) (HPC)
[8] = dose: 400.0 mg/kg/injection, schedule: Q01DX009 (ip), vehicle: Klucel (hydroxypropylcellulose) (HPC)
[9] = dose: 12.5 mg/kg/injection, schedule: Q01DX009 (ip), vehicle: Klucel (hydroxypropylcellulose) (HPC)
[10] = dose: 25.0 mg/kg/injection, schedule: Q01DX009 (ip), vehicle: Klucel (hydroxypropylcellulose) (HPC)
[11] = dose: 50.0 mg/kg/injection, schedule: Q01DX009 (ip), vehicle: Klucel (hydroxypropylcellulose) (HPC)
[12] = dose: 200.0 mg/kg/injection, schedule: Q01DX009 (ip), vehicle: saline with Tween-80
[13] = dose: 6.25 mg/kg/injection, schedule: Q01DX009 (ip), vehicle: saline

OC(CC(O)(C(F)(F)F)C(F)(F)F)CC(O)(C(F)(F)F)C(F)(F)F
T/C [1]: 114 % of control
T/C (dose: 6.25 mg/kg/injection, schedule: Q04DX003 (ip), vehicle: saline): 92 % of control
T/C [2]: 97 % of control
T/C (dose: 12.5 mg/kg/injection, schedule: Q04DX003 (ip), vehicle: saline): 97 % of control
T/C [3]: 108 % of control
T/C (dose: 25.0 mg/kg/injection, schedule: Q04DX003 (ip), vehicle: saline): 105 % of control

Cc1cc(N(CCCl)CCCl)ccc1C=Nc1cccnc1
T/C [4]: 119 % of control
T/C [5]: 124 % of control

CCN(CC)CCOC(=O)Cc1ccccc1
T/C [6]: 106 % of control
T/C [7]: 103 % of control
T/C [8]: 103 % of control

CCC1OC2(C)C(O)C(/C=C/C=C/C=C/c3oc(=O)cc(OC)c3C)OC1(C)C2OC(C)=O (configuration not stated)
T/C (dose: 0.5 mg/kg/injection, schedule: Q01DX009 (ip), vehicle: Klucel (hydroxypropylcellulose) (HPC)): 94 % of control
T/C (dose: 1.0 mg/kg/injection, schedule: Q01DX009 (ip), vehicle: Klucel (hydroxypropylcellulose) (HPC)): 93 % of control
T/C (dose: 2.0 mg/kg/injection, schedule: Q01DX009 (ip), vehicle: Klucel (hydroxypropylcellulose) (HPC)): 94 % of control

CS(=O)(=O)OCc1c(O)c2c(c(O)c1COS(C)(=O)=O)C(=O)C=CC2=O
T/C (dose: 6.25 mg/kg/injection, schedule: Q01DX009 (ip), vehicle: Klucel (hydroxypropylcellulose) (HPC)): 111 % of control
T/C [9]: 106 % of control
T/C [10]: 102 % of control
T/C [11]: 97 % of control

CC(=O)O[C@@H]1[C@@H](O)[C@H]2O[C@@H]3C=C(C)CC[C@]3(CO)[C@]1(C)[C@@]21CO1
T/C (dose: 1.25 mg/kg/injection, schedule: Q01DX009 (ip), vehicle: saline with Tween-80): 111 % of control
T/C (dose: 2.5 mg/kg/injection, schedule: Q01DX009 (ip), vehicle: saline with Tween-80): 103 % of control
T/C (dose: 5.0 mg/kg/injection, schedule: Q01DX009 (ip), vehicle: saline with Tween-80): 116 % of control
T/C (dose: 10.0 mg/kg/injection, schedule: Q01DX009 (ip), vehicle: saline with Tween-80): 100 % of control

S=C(S)Nc1cccc2ccccc12
T/C [9]: 96 % of control
T/C [10]: 93 % of control
T/C [11]: 103 % of control

O=C1NC(=O)/C(=C/C=C/c2ccccc2)S1
T/C [2]: 99 % of control and 114 % of control
T/C [3]: 97 % of control and 115 % of control
T/C [4]: 99 % of control and 103 % of control
T/C [5]: 99 % of control and 108 % of control
T/C [12]: 114 % of control
T/C (dose: 400.0 mg/kg/injection, schedule: Q01DX009 (ip), vehicle: saline with Tween-80): 98 % of control

O=C(C(=O)c1ccc(Br)cc1)c1ccc(Br)cc1
T/C [9]: 108 % of control
T/C [10]: 107 % of control
T/C [11]: 91 % of control

CC1NC(=O)NC1=O (configuration not stated)
T/C [6]: 90 % of control
T/C [7]: 100 % of control
T/C [8]: 102 % of control

CCCCC(CC)C(O)C1CCCCC1O (configuration not stated)
T/C [6]: 100 % of control
T/C [7]: 89 % of control

CCOC(=O)C(Cc1ccc(Cl)cc1)(Cc1ccc(Cl)cc1)C(=O)OCC
T/C [6]: 106 % of control
T/C [7]: 100 % of control
T/C [8]: 93 % of control

C=CCN(CC=C)CCN1CCN(CCCN2c3ccccc3Sc3ccc(C(F)(F)F)cc32)CC1
T/C (dose: 3.12 mg/kg/injection, schedule: Q01DX009 (ip), vehicle: saline): 100 % of control
T/C [13]: 107 % of control
T/C (dose: 12.5 mg/kg/injection, schedule: Q01DX009 (ip), vehicle: saline): 97 % of control

CC1(C)N=C(N)N=C(N)N1c1ccc2ccccc2c1
T/C [2]: 90 % of control
T/C (dose: 22.0 mg/kg/injection, schedule: Q01DX009 (ip), vehicle: Klucel (hydroxypropylcellulose) (HPC)): 87 % of control
T/C [3]: 94 % of control
T/C (dose: 33.0 mg/kg/injection, schedule: Q01DX009 (ip), vehicle: Klucel (hydroxypropylcellulose) (HPC)): 91 % of control
T/C [11]: 119 % of control
T/C [4]: 98 % of control

Cc1ccc(S(=O)(=O)NC(CSCc2ccccc2)C(=O)O)cc1 (configuration not stated)
T/C [4]: 92 % of control
T/C [5]: 86 % of control

CCCC(C)C/C(C)=C/C(C)(C)C(CC(=O)N1CCOCC1)C(=O)O (configuration not stated)
T/C [2]: 100 % of control
T/C [3]: 92 % of control
T/C (dose: 25.0 mg/kg/injection, schedule: Q04DX003 (ip), vehicle: saline with Tween-80): 92 % of control
T/C (dose: 50.0 mg/kg/injection, schedule: Q04DX003 (ip), vehicle: saline with Tween-80): 92 % of control

CC1(C)N=C(N)N=C(N)N1c1ccc(CCc2ccccc2)cc1
T/C (dose: 0.75 mg/kg/injection, schedule: Q01DX009 (ip), vehicle: saline with Tween-80): 97 % of control
T/C (dose: 1.5 mg/kg/injection, schedule: Q01DX009 (ip), vehicle: saline with Tween-80): 100 % of control
T/C (dose: 3.0 mg/kg/injection, schedule: Q01DX009 (ip), vehicle: saline with Tween-80): 102 % of control
T/C (dose: 6.0 mg/kg/injection, schedule: Q01DX009 (ip), vehicle: saline with Tween-80): 95 % of control

CC(=N\O)/C(C)=N/O.CC(=N\O)/C(C)=N/O.CCCC1CC[N-]CC1.CCCC1CC[N-]CC1.CCCC1CC[N-]CC1.CCCC1CC[N-]CC1.[Cl-].[Cl-].[Cl][Rh][Cl].[Rh+3]
T/C (dose: 0.19 mg/kg/injection, schedule: Q01DX009 (ip), vehicle: saline): 104 % of control
T/C (dose: 0.38 mg/kg/injection, schedule: Q01DX009 (ip), vehicle: saline): 107 % of control
T/C (dose: 0.75 mg/kg/injection, schedule: Q01DX009 (ip), vehicle: saline): 104 % of control
T/C (dose: 1.5 mg/kg/injection, schedule: Q01DX009 (ip), vehicle: saline): 103 % of control
T/C (dose: 3.0 mg/kg/injection, schedule: Q01DX009 (ip), vehicle: saline): 105 % of control

ClC1CCCC[N-]1.ClC1CCCC[N-]1.[Cl][Pt+2][Cl] (configuration not stated)
T/C [2]: 91 % of control
T/C [3]: 97 % of control
T/C [4]: 89 % of control
T/C [5]: 108 % of control
T/C [12]: 105 % of control

ClCCCCCCBr
T/C (dose: 75.0 mg/kg/injection, schedule: Q01DX009 (ip), vehicle: Klucel (hydroxypropylcellulose) (HPC)): 122 % of control
T/C (dose: 150.0 mg/kg/injection, schedule: Q01DX009 (ip), vehicle: Klucel (hydroxypropylcellulose) (HPC)): 122 % of control
T/C (dose: 300.0 mg/kg/injection, schedule: Q01DX009 (ip), vehicle: Klucel (hydroxypropylcellulose) (HPC)): 105 % of control

COc1cccc(C(Cc2ccccc2)NCc2ccccc2)c1 (configuration not stated)
T/C [6]: 106 % of control
T/C [7]: 100 % of control
T/C [8]: 96 % of control

CCOP(=O)(N1CC1(C)C)N1CC1(C)C (configuration not stated)
T/C (dose: 5.0 mg/kg/injection, schedule: Q01DX009 (ip), vehicle: saline): 109 % of control
T/C (dose: 10.0 mg/kg/injection, schedule: Q01DX009 (ip), vehicle: saline): 104 % of control
T/C (dose: 20.0 mg/kg/injection, schedule: Q01DX009 (ip), vehicle: saline): 109 % of control
T/C (dose: 30.0 mg/kg/injection, schedule: Q01DX009 (ip), vehicle: saline): 118 % of control

COC1NC(=O)NC(=O)C1=[N+]=[N-] (configuration not stated)
T/C (dose: 2.0 mg/kg/injection, schedule: Q01DX009 (ip), vehicle: water): 112 % of control

CCO/C=C1\SC(=S)N(Cc2ccccc2)C1=O
T/C (dose: 3.12 mg/kg/injection, schedule: Q01DX009 (ip), vehicle: saline with Tween-80): 111 % of control
T/C [1]: 123 % of control
T/C [9]: 92 % of control
T/C [2]: 123 % of control
T/C [10]: 102 % of control and 105 % of control
T/C [3]: 111 % of control

C[C@@H]1CC[C@@]2(NC1)O[C@H]1C[C@H]3[C@@H]4CC=C5C[C@@H](O)CC[C@]5(C)[C@H]4CC[C@]3(C)[C@H]1[C@@H]2C
T/C [9]: 95 % of control

O=[N+]([O-])c1cccc2ncccc12
T/C (dose: 50.0 mg/kg/injection, schedule: Q04DX003 (ip), vehicle: Klucel (hydroxypropylcellulose) (HPC)): 100 % of control
T/C (dose: 100.0 mg/kg/injection, schedule: Q04DX003 (ip), vehicle: Klucel (hydroxypropylcellulose) (HPC)): 97 % of control
T/C (dose: 200.0 mg/kg/injection, schedule: Q04DX003 (ip), vehicle: Klucel (hydroxypropylcellulose) (HPC)): 91 % of control

CCCCCCCCCCCCNC(=O)Nc1cc(C)ccc1C
T/C [6]: 92 % of control
T/C [7]: 96 % of control

COC12C(COC(=O)NCCO)C3=C(C(=O)C(C)=C(N)C3=O)N1CC1NC12 (configuration not stated)
T/C (dose: 1.56 mg/kg/injection, schedule: Q01DX009 (ip), vehicle: Klucel (hydroxypropylcellulose) (HPC)): 98 % of control
T/C (dose: 3.12 mg/kg/injection, schedule: Q01DX009 (ip), vehicle: Klucel (hydroxypropylcellulose) (HPC)): 116 % of control and 120 % of control and 124 % of control
T/C [13]: 119 % of control
T/C [10]: 88 % of control and 180 % of control and 209 % of control
T/C (dose: 25.0 mg/kg/injection, schedule: Q01DX009 (ip), vehicle: saline): 94 % of control

OC(CCN1CCCCC1)(c1ccccc1)C1CCCC1 (configuration not stated)
T/C [9]: 100 % of control
T/C [10]: 94 % of control
T/C [11]: 100 % of control
